In a melting point compilation (Tetko et al.; mined from patent text by program, amines drawn as free bases though some values may be those of a salt):

SMILES | melting point [°C]
C#CCn1cc(C(=O)OCC)c(C(F)(F)F)c1 | 58
C=CCOc1ccccc1S(=O)(=O)NC(=O)n1nc(SCCF)n(C2CC2)c1=O | 15
O=C(CN1CCOCC1)N1CCN(c2ccc(O)cc2)CC1 | 197
COc1ccc(-c2ccc(C(C)=O)cc2)cc1F | 149 to 150
CCSC1=N[C@@H](c2ccc(OC)cc2)[C@@H](c2ccc(OC)cc2)N1 | 92 to 93
CC(C)Oc1nc(-n2cccn2)nc(Cl)c1-c1c(F)cc(F)cc1F | 106 to 107
CCOc1ccc(-c2ccc3c(c2)C=C(C(=O)Nc2ccc(CN(C)C4CCOCC4)cc2)CCS3=O)cc1 (configuration not stated) | 192 to 195
COc1cc(C=C(C#N)C(=O)Nc2ccccc2)cc(Cl)c1O | 273
CN1CCCC(OC(=O)Nc2ccc(F)cc2)C1 (configuration not stated) | 97 to 98
CCCC(CCC)n1[nH]c(Cc2c(C)n(C(=O)c3ccc(Cl)cc3)c3ccc(OC)cc23)cc1=O | 167 to 168
O=C1NC(C2CCCCC2)C1O (configuration not stated) | 140
CC1C(C)(C)C2=C(c3ncncc3CC2)C1(C)C (configuration not stated) | 80
CCCCc1nc2ccnc(Cl)c2n1Cc1ccc(-c2ccccc2C#N)cc1 | 134
O=C(NC1CCN(Cc2ccccc2)CC1)c1ccc(NCc2ccnc3ccccc23)cc1 | 184 to 188
CCOC(=O)C(C)(C)Oc1ccc(-c2ccc(CCNC(=O)Cc3ccccc3)cc2)cc1 | < 20
COC(=O)C(=O)c1ccc(Cl)cc1 | 56 to 57
CC(C(=O)O)c1ccc2c(c1)CC(=O)c1ccccc1S2 (configuration not stated) | 130 to 132
OC1CSC(Oc2cncc(-c3ccncc3Cl)c2)C(O)C1O (configuration not stated) | 208
CCC(=O)/C=C/c1c([N+](=O)[O-])ccc2c1OC(COS(=O)(=O)c1ccc(C)cc1)CO2 (configuration not stated) | 114
Brc1cncc2cccnc12 | 79 to 81
COc1cc(C(C)=O)ccc1OCCCN1CCN(n2ncc3ccc(F)cc32)CC1 | 135 to 137
COC(C(=O)O)c1ccc(OCc2ccccn2)cc1 (configuration not stated) | 169 to 170
COc1ccc(-c2nc(N)ncc2-c2ccc(=O)n(C(C)C)n2)cc1 | 216
CN(C(=O)c1ccccn1)c1cccc(F)c1 | 75 to 78
Brc1ccc2sc3ccccc3c2c1 | 112 to 116
CCCCCCCCCCCCCCCCCCOc1ccc(NC(=O)c2ccc(O)cc2)cc1 | 170

SMILES | melting point [°C]
Cc1c(C)c(N2CCN(c3ccc(S(C)=O)cc3)CC2)c(C)c2c1OC(C)(C)C2 (configuration not stated) | 223 to 227
Nc1nc(/C(=N/OC23CC4CC(CC(C4)C2)C3)C(=O)O)cs1 | 203 to 204
Cc1ccc(C(=O)Nc2ccccc2C(N)=O)cc1 | 206 to 208
CN(C)C(=O)c1nc2n(n1)-c1ccc(Cl)cc1C(c1ccccc1F)=NC2 | 180 to 182
N#CCCCCn1ccc(NC(=S)NCC(F)(F)F)n1 | 96 to 98
O=C(NC(Cc1ccc(-c2cccc3ccccc23)cc1)C(=O)O)C(CS)Cc1ccccc1 (configuration not stated) | 158
CCCCOc1ncc(C(C)=O)cc1-c1nn2c(CC)nc(CN3CCOCC3)c2c(=O)[nH]1 | 145 to 149
CN1C(=O)c2ccccc2N(N=O)c2ccccc21 | 95 to 98
COc1ccccc1N1CCN(CC(O)CCl)CC1 (configuration not stated) | 96 to 98
Cc1nc(N2CCC(c3ccccc3)CC2)c([N+](=O)[O-])c(=O)[nH]1 | 210 to 213
CC#CCOc1ccc(S(=O)(=O)NC(C(=O)NO)c2ccc(OCCN3CCN(C(=O)OC(C)(C)C)CC3)cc2)cc1 (configuration not stated) | 92 to 95
COCCOCn1c(Cl)c(C=O)c2ccccc21 | 52.5 to 54
O=C(Nc1ccc(C(F)(F)F)cc1)C1=NN(c2cccc(Cl)c2)C(c2ccccc2)CC1 (configuration not stated) | 183 to 184
CCOC(=O)C(=O)CC(=O)c1cn(Cc2ccc(OC)cc2)c2ccccc2c1=O | 154 to 156
CN1CC(CCCl)N(C)c2nc3ccccc3n2C1=O (configuration not stated) | 158 to 159
OC1Cc2ccc(C(F)(F)F)cc2Sc2ccc(F)cc21 (configuration not stated) | 73 to 75
COC(=O)C(c1ccccc1)C1CCN(c2ccc([N+](=O)[O-])cc2)CC1 (configuration not stated) | 124
COc1nnc(Cl)c(-c2c(F)cc(F)cc2F)c1-c1ccc(Br)cc1 | 113 to 119
COc1cc(C(=O)C=Cc2ccccc2)ccc1O | 61 to 64
CC(C)(C)OC(=O)NCCCCNC(=O)COc1cccc(C(F)(F)F)c1 | 86
CCCCCCCCCCCCCCCCCCS(=O)(=O)N[C@H]1CCCNC(=O)C1 | 99 to 100
ON=Cc1ccc2c(c1)ncn2-c1cccc(-c2ccncn2)c1 | 220 to 221
O=C/C=C/C=C/c1ccc(OCC(F)(F)C(F)F)nc1 | 88 to 89
OC1CN(CCC#Cc2ccccc2)CCC1c1cccc(C(F)(F)F)c1 (configuration not stated) | 77 to 79
CCN(CC)CC(O)CNC(=O)c1c(OC)c2ccccc2n1-c1ccccc1 (configuration not stated) | 148 to 150
CCCCCCc1oc(C=Cc2ccccc2)nc1CO | 44 to 45

SMILES | melting point [°C]
COc1ccc(C2=NN(c3csc(C)n3)C(=O)[C@H]3CCCC[C@@H]23)cc1OC (relative stereo) | 135 to 137
CCOC(=O)c1cc(-c2csc(C(=O)OCC)n2)[nH]n1 | 104 to 106
CN1Cc2c(CO)ncn2-c2cccc(Cl)c2C1=O | 207 to 208
CCCCCCc1cc2c(s1)-n1c(C)nnc1CN=C2c1ccccc1Cl | 111 to 113
COCC(=O)NCc1cccc2c1C(=O)N(C1CCC(=O)NC1=O)C2=O (configuration not stated) | 196 to 198
Cc1nc(N)nc(OCc2ccccc2)c1[N+](=O)[O-] | 159 to 160
COC1=C(OC)C(=O)C(CCCCCCCCCCCCCO)=C(C)C1=O | 65 to 66
CC(=O)N(C(C)=O)c1cc2c(Nc3ccc(Sc4nccn4C)c(Cl)c3)c(C#N)cnc2cc1N1CCC(N2CCCC2)CC1 | 245 to 247
CCCCCCOC(C)c1ccc(-c2ccc(OCc3ccccc3)cc2)cc1 (single isomer, unassigned; (+)) | 61 to 63
O=C(O)C1=Cc2cc(OCc3ccc(F)cc3)ccc2S(=O)(=O)CC1 | 270 to 273
CCOC(=O)c1cc(C(=O)C=CN(C)C)c(=O)[nH]c1C(=O)OCC | 71
COc1ccc(-c2coc3ccc(-c4nnc(SCc5cccc(F)c5)o4)cc23)cc1 | 146 to 147
COc1ccc(Cl)cc1-c1c(Sc2ncccn2)c(=O)[nH]c2ccc(C(F)(F)F)cc12 | 302 to 303
CSc1ccc2c(c1)Cc1ccc(CO)cc1O2 | 151 to 153
O=c1c2c(Cl)cc(Cl)cc2n(Cc2ccccc2)c(=O)n1Cc1ccc(Br)cc1 | 163 to 168
COC(=O)c1ccc2ncc(C(=O)c3ccc(N4C[C@H](CNC(C)=O)OC4=O)cc3)n2c1 | 231 to 233
O=C(O)CCCCCSC1c2ccccc2COc2ccc(OCc3ccc4ccc(Cl)cc4n3)cc21 (configuration not stated) | 160 to 166
Clc1ccc(OCc2ccnc3ncnn23)cc1 | 193 to 194
COc1cc(CCCCCCCO)ccc1OCc1nc(-c2ccccc2)oc1C | 78 to 79
CCCCCc1c(C(=O)OCC)oc2cc(OC)ccc12 | 38 to 41
CCCCCCCCCCCCCCCc1cccc(OC)c1 | 27 to 28
COc1ccc2[nH]cc(CCCNCC3COc4ccccc4O3)c2c1 (configuration not stated) | 135 to 136
CC(C)Cc1ccc(-c2cc(C(=O)O)cc(-c3ccc(Cl)cc3)n2)cc1 | 220 to 221
CCOC(=O)c1cnc2c3cc(NS(C)(=O)=O)ccc3ncn2c1=O | 310 to 312
C=CCn1c2ccccc2c2c(N)c(C(=O)OC)c(C)nc21 | 78 to 85
CCCCC1(CC)COP(=O)(Cc2ccc(N)cc2)OC1 (configuration not stated) | 90 to 91

SMILES | melting point [°C]
CCCCOc1c(N(C)C(=O)OC(C)(C)C)n(CC2CC2)c(=O)c2ccc(OCC(N)=O)cc12 | 209 to 210
Cc1nc(-c2cccc(-c3nc4sccn4c3-c3ccnc(N[C@@H]4CCCN(C(=O)OC(C)(C)C)C4)n3)c2)no1 | 110 to 112
Cc1ccc2c(c1)c(-c1ccccc1)nn2CO | 109 to 111
CC(C)(C)OC(=O)N1CCC(c2ccc(C(=O)N3CCc4cc(S(C)(=O)=O)ccc43)nc2)CC1 | 202 to 205
Cn1nc(C(F)(F)F)n(-c2ccc(I)cc2Cl)c1=S | 117 to 119
COc1cc2ccnc(N3CCN(C(=O)Nc4ccc([N+](=O)[O-])cc4)CC3)c2cc1OC | 247 to 248
O=C1c2c(Cl)cccc2-n2cnc(-c3nc(CN(CC4CC4)CC4CC4)no3)c2[C@@H]2CCN12 | 155 to 160
Cc1cc(C)n2nc(S(=O)(=O)Nc3ccccc3Cl)nc2n1 | 188 to 190
CC(=O)Nc1ccc2c(c1)CC(N(C)C)C2 (configuration not stated) | 94 to 96
CCCn1c(COCC)nc2c(N)nc3ccc(OCc4cccnc4)cc3c21 | 190 to 191
COc1cc(N)ccc1-c1cnn(C)c1 | 129 to 131
O=C(Nc1nc(-c2ccco2)c(C(=O)C2CCOCC2)s1)c1ccccc1OC(F)(F)F | 131 to 134
O=C1CCC(c2ccccc2)N1c1ccccc1 (configuration not stated) | 106 to 108
Nc1cc(C(F)(F)F)ccc1S(=O)(=O)c1ccccc1 | 142 to 143
OCC(O)COc1cc(-c2cccc(Cl)c2)on1 (configuration not stated) | 92 to 93
COc1cccc(C(=O)c2sccc2Br)c1 | 40
CCCC(=O)Nc1cc(C(=O)Nc2cc(C(=O)Nc3ccc(O)cc3CCBr)n(C)c2)n(C)c1 | 138 to 150
CCSc1ccc(-c2ncco2)c2c1C(=O)CC(C)C2 (configuration not stated) | 111 to 113
Nc1nonc1C(=O)NCCCCCC(=O)NO | 150 to 152
C[Si](C)(C)c1sccc1NC=O | 74 to 76
CC(=O)Nc1c([N+](=O)[O-])cc(Br)c2c1CCN(C(C)=O)C2 | 171
COC(=O)c1cc(C(=O)OC)cc(S(=O)(=O)Nc2ccc(F)cc2C(F)(F)F)c1 | 142 to 150
Cn1c(SCCO)nnc1SCCO | 87 to 88
O=C(O)Cc1nn(CC(=S)Nc2cc(C(F)(F)F)ccc2Br)c(=O)c2ccccc12 | 176 to 177
